What was measured:
Type in all cases: cell-based
human TLR7 = target: T1, human TLR7 (Homo sapiens, UniProt Q9NYK1); assay: TLR7 inhibition reporter assay (HEK-Blue, SEAP); settings: HEK-Blue cells overexpressing human TLR7, ligand gardiquimod 2.5 μM, 22 hour incubation
T1 construct: host or cells: HEK-Blue cells
T1 sequence (Q9NYK1 27-1049): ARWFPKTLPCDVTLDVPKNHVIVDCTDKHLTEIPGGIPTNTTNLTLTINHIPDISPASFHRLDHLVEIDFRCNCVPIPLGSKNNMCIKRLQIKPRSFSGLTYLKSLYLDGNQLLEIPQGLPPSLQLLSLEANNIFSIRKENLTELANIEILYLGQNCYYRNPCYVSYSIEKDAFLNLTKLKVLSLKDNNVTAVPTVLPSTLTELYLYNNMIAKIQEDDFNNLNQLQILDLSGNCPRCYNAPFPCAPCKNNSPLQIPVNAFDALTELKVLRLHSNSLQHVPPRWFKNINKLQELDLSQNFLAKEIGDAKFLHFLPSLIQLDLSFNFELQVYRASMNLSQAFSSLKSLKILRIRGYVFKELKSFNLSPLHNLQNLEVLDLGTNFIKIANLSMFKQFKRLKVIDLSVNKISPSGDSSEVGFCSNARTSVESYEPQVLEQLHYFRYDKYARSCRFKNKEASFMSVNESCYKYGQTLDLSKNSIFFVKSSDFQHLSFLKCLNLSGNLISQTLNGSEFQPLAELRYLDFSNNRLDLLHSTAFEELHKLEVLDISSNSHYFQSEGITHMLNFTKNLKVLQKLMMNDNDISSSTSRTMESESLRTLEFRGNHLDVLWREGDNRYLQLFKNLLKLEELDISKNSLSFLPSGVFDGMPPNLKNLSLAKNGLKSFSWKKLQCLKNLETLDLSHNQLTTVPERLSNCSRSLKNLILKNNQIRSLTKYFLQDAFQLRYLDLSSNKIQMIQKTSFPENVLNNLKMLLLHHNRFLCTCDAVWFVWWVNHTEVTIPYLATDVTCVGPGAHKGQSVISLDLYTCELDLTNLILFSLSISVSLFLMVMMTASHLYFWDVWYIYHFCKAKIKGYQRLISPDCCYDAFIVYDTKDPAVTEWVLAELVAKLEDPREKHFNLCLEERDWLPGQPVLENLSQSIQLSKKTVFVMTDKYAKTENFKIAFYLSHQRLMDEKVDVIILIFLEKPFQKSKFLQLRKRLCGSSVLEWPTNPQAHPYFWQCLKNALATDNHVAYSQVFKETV
Procedure: (§1) TLR7/8/9 Inhibition Reporter Assays
(§2) HEK-Blue™-cells (Invivogen) overexpressing human TLR7. TLR8 or TLR9 receptors were used for screening inhibitors of these receptors using an inducible SEAP (secreted embryonic alkaline phosphatase) reporter gene under the control of the IFN-β minimal promoter fused to five NF-κB and AP-1-binding sites. Cells are seeded into Greiner 384 well plates (15000 cells per well) that are pre dispensed (by ECHO) with testing compounds in DMSO to yield a final dose response concentration range of 0.85 nM-50 μM. After a 60 minute compound pre-treatment in 37 degree incubator, the cells are then stimulated with a TLR7 ligand (gardiquimod at a final concentration of 2.5 μM), TLR8 ligand (R848 at a final concentration of 14.25 μM) or TLR9 ligand (ODN2006 at a final concentration of 200 nM) to activate NF-κB and AP-1 which induce the production of SEAP. After a 22 hour incubation at 37° C., 5% CO2, SEAP levels are determined with the addition of HEK-Blue™ Detection reagent (Invivogen), a cell culture medium that allows for detection of SEAP, according to manufacturer's specifications. The percent inhibition is determined as the % reduction in the HEK-Blue signal present in […].

human TLR9 = target: T2, human TLR9 (Homo sapiens, UniProt Q9NR96); assay: TLR9 inhibition reporter assay (HEK-Blue, SEAP); settings: HEK-Blue cells overexpressing human TLR9, ligand ODN2006 200 nM, 22 hour incubation
T2 construct: host or cells: HEK-Blue cells
T2 sequence (Q9NR96 26-1032): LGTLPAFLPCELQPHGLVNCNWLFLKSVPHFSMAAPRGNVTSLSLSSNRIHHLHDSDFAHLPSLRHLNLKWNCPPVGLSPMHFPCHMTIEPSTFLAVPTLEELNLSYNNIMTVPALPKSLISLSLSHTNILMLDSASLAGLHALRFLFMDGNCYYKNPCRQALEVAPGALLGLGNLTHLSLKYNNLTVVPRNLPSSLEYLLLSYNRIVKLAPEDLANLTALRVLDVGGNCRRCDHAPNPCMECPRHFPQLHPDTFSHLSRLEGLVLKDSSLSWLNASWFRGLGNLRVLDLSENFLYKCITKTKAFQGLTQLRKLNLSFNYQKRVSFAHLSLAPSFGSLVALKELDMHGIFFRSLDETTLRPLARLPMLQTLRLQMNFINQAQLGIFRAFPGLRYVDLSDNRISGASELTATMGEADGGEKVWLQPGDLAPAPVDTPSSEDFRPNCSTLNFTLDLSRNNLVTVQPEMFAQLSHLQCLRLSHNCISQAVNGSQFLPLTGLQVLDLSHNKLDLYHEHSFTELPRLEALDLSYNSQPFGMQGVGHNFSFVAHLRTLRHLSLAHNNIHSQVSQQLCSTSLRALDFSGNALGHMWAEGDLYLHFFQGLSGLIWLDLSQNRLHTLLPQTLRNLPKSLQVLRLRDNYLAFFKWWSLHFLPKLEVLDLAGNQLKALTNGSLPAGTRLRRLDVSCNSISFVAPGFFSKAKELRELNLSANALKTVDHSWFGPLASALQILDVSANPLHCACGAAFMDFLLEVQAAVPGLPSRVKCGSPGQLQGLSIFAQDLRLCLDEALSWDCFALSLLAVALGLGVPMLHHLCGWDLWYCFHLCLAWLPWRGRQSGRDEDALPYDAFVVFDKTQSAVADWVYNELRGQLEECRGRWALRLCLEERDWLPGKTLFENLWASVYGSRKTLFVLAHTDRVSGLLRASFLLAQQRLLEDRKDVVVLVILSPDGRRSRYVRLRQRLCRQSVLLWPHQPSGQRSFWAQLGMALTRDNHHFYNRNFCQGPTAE
Procedure: as §1, §2

human TLR8 = target: T3, human TLR8 (Homo sapiens, UniProt Q9NR97); assay: TLR8 inhibition reporter assay (HEK-Blue, SEAP); settings: HEK-Blue cells overexpressing human TLR8, ligand R848 14.25 μM, 22 hour incubation
T3 construct: host or cells: HEK-Blue cells
T3 sequence (Q9NR97 27-1041): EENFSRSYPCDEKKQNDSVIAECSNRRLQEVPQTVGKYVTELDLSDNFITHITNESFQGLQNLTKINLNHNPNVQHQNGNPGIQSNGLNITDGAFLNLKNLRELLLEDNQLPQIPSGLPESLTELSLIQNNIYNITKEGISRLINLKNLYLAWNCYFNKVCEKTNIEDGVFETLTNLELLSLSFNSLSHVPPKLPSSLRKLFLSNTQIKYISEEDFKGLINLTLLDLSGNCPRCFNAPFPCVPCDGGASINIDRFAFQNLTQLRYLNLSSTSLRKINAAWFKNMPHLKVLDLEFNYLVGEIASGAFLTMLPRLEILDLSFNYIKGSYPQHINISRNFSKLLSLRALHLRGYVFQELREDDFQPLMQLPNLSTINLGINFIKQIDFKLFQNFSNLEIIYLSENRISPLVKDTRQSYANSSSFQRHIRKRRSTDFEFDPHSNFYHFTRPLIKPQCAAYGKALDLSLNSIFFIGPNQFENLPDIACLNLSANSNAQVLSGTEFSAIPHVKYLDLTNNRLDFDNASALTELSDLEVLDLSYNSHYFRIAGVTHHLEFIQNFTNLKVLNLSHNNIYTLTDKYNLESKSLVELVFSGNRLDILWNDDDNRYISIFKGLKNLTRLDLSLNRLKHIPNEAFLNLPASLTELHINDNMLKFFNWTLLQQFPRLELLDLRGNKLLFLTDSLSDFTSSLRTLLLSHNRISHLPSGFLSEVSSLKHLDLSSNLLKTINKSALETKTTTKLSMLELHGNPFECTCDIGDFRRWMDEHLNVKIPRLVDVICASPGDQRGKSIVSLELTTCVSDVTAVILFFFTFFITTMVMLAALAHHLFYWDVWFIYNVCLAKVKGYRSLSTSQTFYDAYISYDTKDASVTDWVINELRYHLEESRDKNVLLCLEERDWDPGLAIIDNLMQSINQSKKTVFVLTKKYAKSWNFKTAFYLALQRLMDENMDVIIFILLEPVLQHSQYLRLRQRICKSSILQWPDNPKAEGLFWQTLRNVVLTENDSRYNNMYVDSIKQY
Procedure: as §1, §2

| Structure (SMILES) | IC50 (human TLR7) | IC50 (human TLR9) | IC50 (human TLR8) |
| --- | --- | --- | --- |
| Cc1cc(C2CCN(C3CC4CCC(C3)N4CC3CC3)CC2)nc2c1nc(-c1ccc(S(C)(=O)=O)cc1)n2C (single isomer, unassigned) [Example 30, 5-(1-(8-(cyclopropylmethyl)-8-azabicyclo[3.2.1]octan-3-yl)piperidin-4-yl)-3,7-dimethyl-2-(4-(methylsulfonyl)phenyl)-3H-imidazo[4,5-b]pyridine] | 2.9 µM | 60 nM | > 50 µM |
| Cc1cc(C2CCN(C3CC4CCC(C3)N4CC3CC3)CC2)nc2c1nc(-c1ccc(S(C)(=O)=O)cc1)n2C (single isomer, unassigned) [Example 31, 5-(1-(8-(cyclopropylmethyl)-8-azabicyclo[3.2.1]octan-3-yl)piperidin-4-yl)-3,7-dimethyl-2-(4-(methylsulfonyl)phenyl)-3H-imidazo[4,5-b]pyridine] | 7.2 µM | 240 nM | 19 µM |
| Cc1cc(C2CCN(C3CC4CCC(C3)N4C3CCOCC3)CC2)nc2c1nc(-c1ccc(S(C)(=O)=O)cc1)n2C (single isomer, unassigned) [Example 34, 3,7-dimethyl-2-(4-(methylsulfonyl)phenyl)-5-(1-(8-(tetrahydro-2H-pyran-4-yl)-8-azabicyclo[3.2.1]octan-3-yl)piperidin-4-yl)-3H-imidazo[4,5-b]pyridine] | 5.7 µM | 37 nM | > 50 µM |
| Cc1cc(C2CCN(C3CC4CCC(C3)N4C3CCOCC3)CC2)nc2c1nc(-c1ccc(S(C)(=O)=O)cc1)n2C (single isomer, unassigned) [Example 35, 3,7-dimethyl-2-(4-(methylsulfonyl)phenyl)-5-(1-(8-(tetrahydro-2H-pyran-4-yl)-8-azabicyclo[3.2.1]octan-3-yl)piperidin-4-yl)-3H-imidazo[4,5-b]pyridine] | 7.4 µM | 340 nM | > 50 µM |

Second part, the molecule after the results:

| IC50 (human TLR7) | IC50 (human TLR9) | IC50 (human TLR8) | Structure (SMILES) |
| --- | --- | --- | --- |
| 8.1 µM | 130 nM | 27 µM | Cc1cc(-c2ccc(CN3CC4(C3)CN(C3CCC3)C4)cc2)nc2c1nc(-c1ccc(S(C)(=O)=O)cc1)n2C1CC1 [Example 1, 5-(4-((6-cyclobutyl-2,6-diazaspiro[3.3]heptan-2-yl)methyl)phenyl)-3-cyclopropyl-7-methyl-2-(4-(methylsulfonyl)phenyl)-3H-imidazo[4,5-b]pyridine] |
| 7.2 µM | 100 nM | 31 µM | Cc1cc(-c2ccc(CN3CCC(N4CCCC4)CC3)cc2)nc2c1nc(-c1ccc(S(C)(=O)=O)cc1)n2C1CC1 [Example 2, 3-cyclopropyl-7-methyl-2-(4-(methylsulfonyl)phenyl)-5-(4-((4-(pyrrolidin-1-yl)piperidin-1-yl)methyl)phenyl)-3H-imidazo[4,5-b]pyridine] |
| 0.71 µM | 190 nM | > 50 µM | Cc1cc(-c2ccc(CN3CC4(C3)CN(C(C)C)C4)cc2)nc2c1nc(-c1ccc(S(C)(=O)=O)cc1)n2C1CC1 [Example 3, 3-cyclopropyl-5-(4-((6-isopropyl-2,6-diazaspiro[3.3]heptan-2-yl)methyl)phenyl)-7-methyl-2-(4-(methylsulfonyl)phenyl)-3H-imidazo[4,5-b]pyridine] |
| 0.2 µM | 320 nM | 0.26 µM | Cc1cc(-c2ccc(CN3CC4(C3)CN(C3CCOCC3)C4)cc2)nc2c1nc(-c1ccc(S(C)(=O)=O)cc1)n2C1CC1 [Example 5, 3-cyclopropyl-7-methyl-2-(4-(methylsulfonyl)phenyl)-5-(4-((6-(tetrahydro-2H-pyran-4-yl)-2,6-diazaspiro[3.3]heptan-2-yl)methyl)phenyl)-3H-imidazo[4,5-b]pyridine] |
| 29 µM | 1200 nM | > 50 µM | Cc1cc(-c2ccc(N3CCN(C(C)C)CC3)cc2)nc2c1nc(-c1ccc(S(C)(=O)=O)cc1)n2C [Example 7, 5-(4-(4-isopropylpiperazin-1-yl)phenyl)-3,7-dimethyl-2-(4-(methylsulfonyl)phenyl)-3H-imidazo[4,5-b]pyridine] |
| > 50 µM | 1700 nM | > 50 µM | Cc1cc(-c2ccc(N3CCN(CC(C)C)CC3)cc2)nc2c1nc(-c1ccc(S(C)(=O)=O)cc1)n2C [Example 8, 5-(4-(4-isobutylpiperazin-1-yl)phenyl)-3,7-dimethyl-2-(4-(methylsulfonyl)phenyl)-3H-imidazo[4,5-b]pyridine] |

Source: patent US20250177363A1, “SUBSTITUTED IMIDAZOPYRIDINYL COMPOUNDS USEFUL AS INHIBITORS OF TLR9” (Bristol-Myers Squibb Company, priority 2022, published 2025)
